Source: paper PMC7822065, “Discovery of indole-3-butyric acid derivatives as potent histone deacetylase inhibitors” (Journal of Enzyme Inhibition and Medicinal Chemistry, 2021)
Like-named read-outs stand apart in the source and are kept apart here.

Legend:
A549 cells = test: MTT antiproliferative assay, A549; type: cell-based; conditions: Homo sapiens, lung cancer
Method: (§1) The stock solutions of tested compounds were diluted with culture medium. […] Then, the cells were treated with compound sample at various concentrations for 48 h. Afterward, […] working solution (5 mg/ml) was added to each well and incubated for another 4 h. After incubation, the […] formed from MTT was extracted by adding DMSO (200 µl). The optical density (OD) at 490 nm and 630 nm were measured by Universal Microplate Spectrophotometer. […] The IC50 values were calculated with Origin 7.5 software (Originlab Corporation, Northampton, MA), and standard deviations of the IC50 values were obtained through at least 3 independent experiments.

Calu-3 cells = test: MTT antiproliferative assay, Calu-3; type: cell-based; conditions: Homo sapiens, lung cancer
Method: as §1

SPC-A-1 cells = test: MTT antiproliferative assay, SPC-A-1; type: cell-based; conditions: SPCA1, lung cancer
Method: as §1

H322 cells = test: MTT antiproliferative assay, H322; type: cell-based; conditions: NCI-H322, lung cancer
Method: as §1

H1299 cells = test: MTT antiproliferative assay, H1299; type: cell-based; conditions: Homo sapiens, NCI-H1299, lung cancer
Method: as §1

MDA-MB-231 cells = test: MTT antiproliferative assay, MDA-MB-231; type: cell-based; conditions: Homo sapiens, breast carcinoma
Method: as §1

MCF-7 cells = test: MTT antiproliferative assay, MCF-7; type: cell-based; conditions: Homo sapiens, MCF7, breast carcinoma
Method: as §1

MDA-MB-468 cells = test: MTT antiproliferative assay, MDA-MB-468; type: cell-based; conditions: Homo sapiens, breast carcinoma
Method: as §1

LoVo cells = test: MTT antiproliferative assay, LoVo; type: cell-based; conditions: Homo sapiens, colon carcinoma
Method: as §1

Colo205 cells = test: MTT antiproliferative assay, Colo205; type: cell-based; conditions: Homo sapiens, COLO 205, colon carcinoma
Method: as §1

A2780 cells = test: MTT antiproliferative assay, A2780; type: cell-based; conditions: for IC50: Homo sapiens
Method: The stock solutions of tested compounds were diluted with culture medium. Briefly, the cells were seeded into each well of 96-well plate, which were incubated at 37 °C, 5% CO2 until confluency 90–95%. Then, the cells were treated with compound sample at various concentrations for 48 h. Afterward, […] working solution (5 mg/ml) was added to each well and incubated for another 4 h. After incubation, the […] formed from MTT was extracted by adding DMSO (200 µl). The optical density (OD) at 490 nm and 630 nm were measured by Universal Microplate Spectrophotometer. […] The IC50 values were calculated with Origin 7.5 software (Originlab Corporation, Northampton, MA), and standard deviations of the IC50 values were obtained through at least 3 independent experiments.
A series of tumour cell lines including the lung cancer A549, Calu-3, SPC-A-1, H322, H1299, breast cancer MDA-MB-231, MCF-7, MDA-MB-468, colon carcinoma LoVo, Colo205, ovarian cancer A2780, SKOV3, gastric cancer MKN45, pancreatic cancer PNAC-1, leukemic K562, and multiple myeloma OPM2 cells were cultured for the antiproliferative assay of active compound I13. In the present study, molecule I13 could inhibit the growth of both solid and haematologic tumour cell lines (Table 4). […]. The antiproliferative activity of molecule I13 was considered to be restricted by the poor enzyme inhibitory selectivity. Enhancement of selectivity could be a useful strategy to improve the anticancer activity of this group of HDACIs.

SKOV3 cells = test: MTT antiproliferative assay, SKOV3; type: cell-based; conditions: Homo sapiens, SK-OV-3, ovarian cancer
Method: as §1

MKN45 cells = test: MTT antiproliferative assay, MKN45; type: cell-based; conditions: Homo sapiens, MKN-45, gastric cancer
Method: as §1

PNAC-1 cells = test: MTT antiproliferative assay, PNAC-1; type: cell-based
Method: as §1

K562 cells = test: MTT antiproliferative assay, K562; type: cell-based; conditions: Homo sapiens, leukemia
Method: as §1

OPM2 cells = test: MTT antiproliferative assay, OPM2; type: cell-based; conditions: Homo sapiens, OPM-2, multiple myeloma
Method: as §1

Water solubility = type: physicochemical
HepG2 xenograft = conditions: for mean weight of tumours: n = 7
U937 cells = test: MTT antiproliferative assay, U937; conditions: Homo sapiens, U-937, 48 h, read-out: U937 IC50
Method: (§2) The stock solutions of tested compounds were diluted with culture medium. […] Then, the cells were treated with compound sample at various concentrations for 48 h. Afterward, 20 MTT working solution (5 mg/ml) was added to each well and incubated for another 4 h. After incubation, the medium formed from MTT was extracted by adding DMSO (200 µl). The optical density (OD) at 490 nm and 630 nm were measured by Universal Microplate Spectrophotometer. […] The IC50 values were calculated with Origin 7.5 software (Originlab Corporation, Northampton, MA), and standard deviations of the IC50 values were obtained through at least 3 independent experiments.

U266 cells = test: MTT antiproliferative assay, U266
Method: as §2
To evaluate the antiproliferative activity of hydroxamic acid containing molecules, MTT assays were performed using U937, U266, and HepG2 cell lines.

HepG2 cells [1] = test: MTT antiproliferative assay, HepG2
Method: as §2

[2] = test system: HDACs (HeLa nucleus extract containing a mixture of HDAC isoforms); test: HDAC inhibitory assay with HeLa nucleus extract; conditions: at the concentration of 1 µM
HDAC1 = HDAC1 (Homo sapiens, UniProt Q13547); test: In vitro HDACs inhibitory assay, recombinant HDAC1
Method: (§3) All of the HDAC enzymes were purchased from BPS Bioscience (San Diego, CA). Briefly, 20 μl of HeLa nucleus extract or recombinant HDAC enzyme solution was mixed with various concentrations of tested compound (20 μl). The mixture was incubated at 30 °C for 1 h (for the time-dependent assay, the mixture was incubated for 15, 30, 60, and 90 min, respectively), then 10 μl of fluorogenic substrate (Boc-Lys (acetyl)-AMC (3 mM) for HDAC1, 2, 3, and 6, Boc-Lys (trifluoroacetyl)-AMC (3 mM) for HDAC 4, 7, 8, and 9) was added. After incubation at 30 °C for 2 h, the catalytic reaction was stopped by addition of 10 μl of developer containing trypsin and trichostatin A (TSA). After 30 min, fluorescence intensity was measured using a microplate reader at excitation and emission wavelengths of 360 and 460 nm, respectively. The inhibition ratios were calculated from the fluorescence intensity readings of tested wells relative to those of control wells, and the IC50 curves and values were determined by GraphPad Prism 6.0 software (La Jolla, CA).

HDAC2 = HDAC2 (Homo sapiens, UniProt Q92769); test: In vitro HDACs inhibitory assay, recombinant HDAC2
Method: as §3

HDAC3 = HDAC3 (Homo sapiens, UniProt O15379); test: In vitro HDACs inhibitory assay, recombinant HDAC3
Method: as §3

HDAC4 = HDAC4 (Homo sapiens, UniProt P56524); test: In vitro HDACs inhibitory assay, recombinant HDAC4
Method: as §3

HDAC6 = HDAC6 (Homo sapiens, UniProt Q9UBN7); test: In vitro HDACs inhibitory assay, recombinant HDAC6
Method: as §3

HDAC7 = HDAC7 (Homo sapiens, UniProt Q8WUI4); test: In vitro HDACs inhibitory assay, recombinant HDAC7
Method: as §3

HDAC8 = HDAC8 (Homo sapiens, UniProt Q9BY41); test: In vitro HDACs inhibitory assay, recombinant HDAC8
Method: as §3

HDAC9 = HDAC9 (Homo sapiens, UniProt Q9UKV0); test: In vitro HDACs inhibitory assay, recombinant HDAC9
Method: as §3

HepG2 cells [3] = test: Annexin V/PI cell apoptosis assay (flow cytometry); conditions: annexin V-FITC/PI
Method: After 10 min of incubation, 1 µl PI was added to each sample and mixed gently. After incubation at room temperature for another 20 min in the dark, cells were subjected to flow cytometer (CytoFLEX, Beckman Coulter, Brea, CA).

[4] = 50 mg/kg/d intragastric, 16 days, HepG2 xenograft

Sequence of HDAC4 (P56524 whole entry): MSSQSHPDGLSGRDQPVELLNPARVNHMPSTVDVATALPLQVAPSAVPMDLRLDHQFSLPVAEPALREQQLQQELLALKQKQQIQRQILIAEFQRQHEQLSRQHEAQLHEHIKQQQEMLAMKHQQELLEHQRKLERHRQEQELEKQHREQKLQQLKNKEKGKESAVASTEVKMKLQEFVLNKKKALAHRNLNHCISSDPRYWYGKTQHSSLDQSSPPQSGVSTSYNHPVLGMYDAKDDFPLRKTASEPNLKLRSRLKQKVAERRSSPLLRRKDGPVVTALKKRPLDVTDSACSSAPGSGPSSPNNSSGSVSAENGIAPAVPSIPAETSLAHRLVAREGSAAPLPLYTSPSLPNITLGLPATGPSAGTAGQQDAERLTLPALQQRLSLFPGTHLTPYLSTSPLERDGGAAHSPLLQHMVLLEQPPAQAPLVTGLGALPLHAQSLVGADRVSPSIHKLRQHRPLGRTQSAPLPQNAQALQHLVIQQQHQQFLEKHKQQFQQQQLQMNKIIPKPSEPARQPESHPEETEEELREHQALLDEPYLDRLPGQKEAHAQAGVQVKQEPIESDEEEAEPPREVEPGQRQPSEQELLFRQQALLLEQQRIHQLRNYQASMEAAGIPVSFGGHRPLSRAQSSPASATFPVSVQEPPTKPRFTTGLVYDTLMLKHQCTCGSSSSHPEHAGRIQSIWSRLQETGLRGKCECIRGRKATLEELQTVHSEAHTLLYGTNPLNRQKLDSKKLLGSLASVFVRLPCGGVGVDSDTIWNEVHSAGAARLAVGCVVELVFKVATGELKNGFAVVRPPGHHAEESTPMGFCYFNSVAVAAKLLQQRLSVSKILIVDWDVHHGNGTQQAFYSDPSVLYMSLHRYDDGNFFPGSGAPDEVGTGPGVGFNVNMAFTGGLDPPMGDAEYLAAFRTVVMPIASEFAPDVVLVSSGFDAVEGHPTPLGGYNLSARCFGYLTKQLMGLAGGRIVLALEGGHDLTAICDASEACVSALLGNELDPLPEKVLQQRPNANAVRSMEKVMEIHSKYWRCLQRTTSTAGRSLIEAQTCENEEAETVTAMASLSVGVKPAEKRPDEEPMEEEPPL
Sequence of HDAC8 (Q9BY41 whole entry): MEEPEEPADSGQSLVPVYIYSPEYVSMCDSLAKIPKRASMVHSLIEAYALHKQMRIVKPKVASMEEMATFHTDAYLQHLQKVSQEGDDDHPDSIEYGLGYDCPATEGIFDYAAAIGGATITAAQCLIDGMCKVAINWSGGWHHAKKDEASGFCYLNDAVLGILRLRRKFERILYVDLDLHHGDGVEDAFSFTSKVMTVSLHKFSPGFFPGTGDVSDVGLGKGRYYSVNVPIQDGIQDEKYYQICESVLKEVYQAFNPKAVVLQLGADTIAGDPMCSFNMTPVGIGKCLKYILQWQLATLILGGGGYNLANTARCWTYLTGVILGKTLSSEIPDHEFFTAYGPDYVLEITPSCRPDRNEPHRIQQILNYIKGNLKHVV
Sequence of HDAC1 (Q13547 whole entry): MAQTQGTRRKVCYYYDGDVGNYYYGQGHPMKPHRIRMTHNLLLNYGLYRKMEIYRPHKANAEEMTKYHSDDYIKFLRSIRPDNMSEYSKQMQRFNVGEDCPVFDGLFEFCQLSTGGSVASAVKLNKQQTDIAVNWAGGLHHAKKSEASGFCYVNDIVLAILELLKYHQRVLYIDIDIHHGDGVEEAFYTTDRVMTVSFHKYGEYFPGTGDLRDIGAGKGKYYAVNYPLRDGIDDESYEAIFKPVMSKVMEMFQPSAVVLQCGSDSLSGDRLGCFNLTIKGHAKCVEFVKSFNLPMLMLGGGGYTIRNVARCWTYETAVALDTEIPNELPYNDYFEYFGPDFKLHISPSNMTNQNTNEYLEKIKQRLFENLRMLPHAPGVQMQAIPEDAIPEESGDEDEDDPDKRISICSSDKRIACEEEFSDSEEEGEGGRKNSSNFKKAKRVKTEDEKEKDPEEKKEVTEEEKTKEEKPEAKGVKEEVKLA
Sequence of HDAC9 (Q9UKV0 whole entry): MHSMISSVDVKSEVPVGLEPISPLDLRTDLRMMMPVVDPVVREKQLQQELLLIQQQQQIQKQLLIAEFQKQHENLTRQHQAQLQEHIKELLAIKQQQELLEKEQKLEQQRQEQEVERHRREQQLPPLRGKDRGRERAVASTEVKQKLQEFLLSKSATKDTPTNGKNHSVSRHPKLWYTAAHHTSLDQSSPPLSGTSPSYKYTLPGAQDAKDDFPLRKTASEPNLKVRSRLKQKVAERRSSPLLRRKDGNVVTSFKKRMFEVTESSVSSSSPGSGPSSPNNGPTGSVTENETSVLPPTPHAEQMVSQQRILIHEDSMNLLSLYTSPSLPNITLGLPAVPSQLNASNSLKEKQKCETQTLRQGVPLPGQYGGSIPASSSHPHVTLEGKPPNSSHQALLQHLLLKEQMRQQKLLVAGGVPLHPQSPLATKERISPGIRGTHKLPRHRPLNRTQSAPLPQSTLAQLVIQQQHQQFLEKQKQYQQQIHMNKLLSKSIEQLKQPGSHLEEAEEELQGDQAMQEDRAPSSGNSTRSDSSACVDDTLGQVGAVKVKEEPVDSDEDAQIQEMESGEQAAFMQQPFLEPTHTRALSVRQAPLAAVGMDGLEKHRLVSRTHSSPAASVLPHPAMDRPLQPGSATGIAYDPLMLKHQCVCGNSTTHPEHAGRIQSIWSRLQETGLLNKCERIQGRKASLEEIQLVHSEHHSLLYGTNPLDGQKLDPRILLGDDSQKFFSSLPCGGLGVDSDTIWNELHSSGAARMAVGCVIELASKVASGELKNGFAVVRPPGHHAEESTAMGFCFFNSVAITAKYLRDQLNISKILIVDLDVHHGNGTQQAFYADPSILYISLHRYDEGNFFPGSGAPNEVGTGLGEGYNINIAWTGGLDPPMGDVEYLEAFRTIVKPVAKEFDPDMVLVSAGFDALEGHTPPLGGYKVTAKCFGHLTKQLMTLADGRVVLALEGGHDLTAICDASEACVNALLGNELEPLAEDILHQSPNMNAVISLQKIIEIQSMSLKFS
Sequence of HDAC7 (Q8WUI4 whole entry): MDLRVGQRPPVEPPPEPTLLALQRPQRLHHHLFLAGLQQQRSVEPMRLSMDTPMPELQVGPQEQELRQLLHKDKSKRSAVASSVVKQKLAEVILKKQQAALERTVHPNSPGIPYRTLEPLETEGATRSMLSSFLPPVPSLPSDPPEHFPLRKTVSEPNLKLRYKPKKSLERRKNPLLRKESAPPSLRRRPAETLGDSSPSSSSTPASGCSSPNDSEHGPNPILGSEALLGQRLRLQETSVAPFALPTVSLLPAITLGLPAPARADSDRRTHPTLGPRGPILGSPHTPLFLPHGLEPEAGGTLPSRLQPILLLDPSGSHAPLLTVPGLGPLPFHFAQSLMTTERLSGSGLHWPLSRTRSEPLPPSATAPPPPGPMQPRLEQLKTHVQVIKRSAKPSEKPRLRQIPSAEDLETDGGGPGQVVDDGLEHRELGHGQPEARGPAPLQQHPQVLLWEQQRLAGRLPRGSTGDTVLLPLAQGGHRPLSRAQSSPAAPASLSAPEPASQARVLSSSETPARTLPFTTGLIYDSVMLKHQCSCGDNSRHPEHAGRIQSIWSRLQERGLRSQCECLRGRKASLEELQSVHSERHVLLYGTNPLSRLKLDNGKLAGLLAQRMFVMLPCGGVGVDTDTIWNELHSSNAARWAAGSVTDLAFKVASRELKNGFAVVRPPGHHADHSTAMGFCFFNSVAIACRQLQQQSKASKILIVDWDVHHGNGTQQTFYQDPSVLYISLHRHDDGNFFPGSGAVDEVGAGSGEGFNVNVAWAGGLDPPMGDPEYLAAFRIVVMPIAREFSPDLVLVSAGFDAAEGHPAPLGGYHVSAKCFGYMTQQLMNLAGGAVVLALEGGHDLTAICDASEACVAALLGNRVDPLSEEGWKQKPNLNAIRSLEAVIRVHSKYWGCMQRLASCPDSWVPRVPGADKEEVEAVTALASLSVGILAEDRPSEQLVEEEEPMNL
Sequence of HDAC2 (Q92769 whole entry): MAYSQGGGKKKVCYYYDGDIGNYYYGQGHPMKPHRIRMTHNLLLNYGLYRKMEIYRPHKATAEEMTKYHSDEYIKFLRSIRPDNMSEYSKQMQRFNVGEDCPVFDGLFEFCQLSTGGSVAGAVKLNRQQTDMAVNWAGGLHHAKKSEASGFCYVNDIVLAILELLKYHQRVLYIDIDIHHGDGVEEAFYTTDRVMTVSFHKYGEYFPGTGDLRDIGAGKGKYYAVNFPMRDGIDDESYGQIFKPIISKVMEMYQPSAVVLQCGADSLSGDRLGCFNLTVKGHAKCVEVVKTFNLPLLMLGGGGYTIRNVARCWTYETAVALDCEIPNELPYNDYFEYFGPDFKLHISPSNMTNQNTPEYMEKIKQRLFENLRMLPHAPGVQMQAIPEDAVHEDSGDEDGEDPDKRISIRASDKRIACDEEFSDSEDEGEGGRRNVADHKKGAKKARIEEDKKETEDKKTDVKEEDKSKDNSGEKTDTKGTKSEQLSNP
Sequence of HDAC3 (O15379 whole entry): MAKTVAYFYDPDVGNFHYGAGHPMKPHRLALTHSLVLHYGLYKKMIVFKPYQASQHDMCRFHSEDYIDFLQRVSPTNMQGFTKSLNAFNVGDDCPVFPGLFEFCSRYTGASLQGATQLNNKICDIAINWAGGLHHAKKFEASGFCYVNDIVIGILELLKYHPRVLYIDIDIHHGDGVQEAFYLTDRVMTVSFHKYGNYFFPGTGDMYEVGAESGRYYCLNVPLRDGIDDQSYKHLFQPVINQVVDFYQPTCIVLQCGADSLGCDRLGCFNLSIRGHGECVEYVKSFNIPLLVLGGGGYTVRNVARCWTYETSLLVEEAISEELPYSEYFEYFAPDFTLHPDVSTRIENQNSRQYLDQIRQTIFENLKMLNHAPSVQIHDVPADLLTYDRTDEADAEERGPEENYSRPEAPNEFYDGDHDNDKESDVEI
Sequence of HDAC3 (Q9Y618 395-489 partner limits assumed): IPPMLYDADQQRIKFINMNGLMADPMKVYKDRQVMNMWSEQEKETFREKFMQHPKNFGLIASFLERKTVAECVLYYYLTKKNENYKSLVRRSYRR

Cn1cc(CCCC(=O)Nc2ccc(C(=O)NO)cc2)c2ccccc21 [Compound I13, 4-(4-(1-Methyl-1H-indol-3-yl)butanamido)-N-hydroxybenzamide]
IC50 (A549 cells): 3150 nM
IC50 (Calu-3 cells): 1260 nM
IC50 (SPC-A-1 cells): 810 nM
IC50 (H322 cells): 14900 nM
IC50 (H1299 cells): 7670 nM
IC50 (MDA-MB-231 cells): 780 nM
IC50 (MCF-7 cells): 6340 nM
IC50 (MDA-MB-468 cells): 1340 nM
IC50 (LoVo cells): 2190 nM
IC50 (Colo205 cells): 2420 nM
IC50 (A2780 cells; A2780, ovarian cancer, MTT, read-out: A2780 IC50): 4600 nM
fold more active than SAHA, A2780 cells (A2780 cells; ratio of IC50 values): 5.9 fold
IC50 (SKOV3 cells): 1440 nM
IC50 (MKN45 cells): 18200 nM
IC50 (PNAC-1 cells; pancreatic cancer, MTT): 1170 nM
fold more active than SAHA, PNAC-1 cells (PNAC-1 cells; ratio of IC50 values): 5.6 fold
IC50 (K562 cells): 2870 nM
IC50 (OPM2 cells): 230 nM
water solubility (Water solubility): good water solubility
toxic signs in liver and spleen (HepG2 xenograft; 50 mg/kg/d intragastric, 16 days): no obvious toxic signs in liver and spleen were detected
tumour inhibitory ratio (HepG2 xenograft; [4]): 33.1%
mean weight of tumours (HepG2 xenograft; [4]): 0.303 g
mice body weight loss (HepG2 xenograft; mouse, in vivo): No evidence of mice body weight (measured every two days) loss
IC50 (U937 cells): 930 ± 80 nM
IC50 (U266 cells; Homo sapiens, U-266, 48 h, read-out: U266 IC50): 160 ± 40 nM
fold more active than SAHA, U266 cells (U266 cells; ratio of IC50 values): 5.5 fold
IC50 (HepG2 cells [1]; Homo sapiens, HepG2, 48 h, read-out: HepG2 IC50): 1850 ± 310 nM
fold more active than SAHA, HepG2 cells (HepG2 cells [1]; ratio of IC50 values): 4.7 fold
HDACs, percentage inhibition rate (PIR) [2]: 82.19 ± 1.60%
IC50 (HDAC1): 13.9 nM
IC50 (HDAC2): 49.9 nM
IC50 (HDAC3): 12.1 nM
IC50 (HDAC4): > 5000 nM
IC50 (HDAC6): 7.71 nM
IC50 (HDAC7): 326 nM
IC50 (HDAC8): 284 nM
IC50 (HDAC9): > 5000 nM
ratio of apoptotic cells (HepG2 cells [3]; HepG2, 0.2 µM, 24 h): 11.56%
flow cytometry quadrant Q1-LL (HepG2 cells [3]; HepG2, 0.2 μM): 88.42%
flow cytometry quadrant Q1-LR (HepG2 cells [3]; HepG2, 0.2 μM): 6.12%
flow cytometry quadrant Q1-UL (HepG2 cells [3]; HepG2, 0.2 μM): 0.02%
flow cytometry quadrant Q1-UR (HepG2 cells [3]; HepG2, 0.2 μM): 5.44%
flow cytometry quadrant Q1-LL (HepG2 cells [3]; HepG2, 0.8 μM): 67.38%
flow cytometry quadrant Q1-LR (HepG2 cells [3]; HepG2, 0.8 μM): 21.27%
flow cytometry quadrant Q1-UL (HepG2 cells [3]; HepG2, 0.8 μM): 0.07%
flow cytometry quadrant Q1-UR (HepG2 cells [3]; HepG2, 0.8 μM): 11.28%

O=C(CCCCCCC(=O)Nc1ccccc1)NO [SAHA, Suberoylanilide hydroxamic acid, reference compound]
IC50 (A2780 cells; A2780, read-out: A2780 IC50): 27300 nM
mean weight of tumours (HepG2 xenograft; 100 mg/kg/d intragastric, 16 days, HepG2 xenograft): 0.322 g
flow cytometry quadrant Q1-LL (HepG2 cells [3]; HepG2, 0.2 μM): 88.86%
flow cytometry quadrant Q1-LR (HepG2 cells [3]; HepG2, 0.2 μM): 5.30%
flow cytometry quadrant Q1-UL (HepG2 cells [3]; HepG2, 0.2 μM): 0.05%
flow cytometry quadrant Q1-UR (HepG2 cells [3]; HepG2, 0.2 μM): 5.79%
flow cytometry quadrant Q1-LL (HepG2 cells [3]; HepG2, 0.8 μM): 86.03%
flow cytometry quadrant Q1-LR (HepG2 cells [3]; HepG2, 0.8 μM): 7.73%
flow cytometry quadrant Q1-UL (HepG2 cells [3]; HepG2, 0.8 μM): 0.01%
flow cytometry quadrant Q1-UR (HepG2 cells [3]; HepG2, 0.8 μM): 6.23%
